Data published in PubChem BioAssay (NCI).
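In this assay, cells in 96-well plates receive the compound at five concentrations for 48 hours. Endpoints are linearly interpolated between the surrounding concentrations. Here, GI50 denotes the concentration required for 50% inhibition of growth. TGI denotes the concentration required for complete inhibition of growth.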

Legend:
Assay in all cases: NCI-60 cell line screen, 48 h
[1] = tested on: SF-268 CNS
[2] = tested on: HOP-62 NSCLC
[3] = tested on: OVCAR-5 ovarian
[4] = tested on: K-562 leukemia
[5] = tested on: SK-MEL-2 melanoma
[6] = tested on: MOLT-4 leukemia
[7] = tested on: ACHN renal
[8] = tested on: NCI-H460 lung
[9] = tested on: SN12C renal
[10] = tested on: SW-620 colon
[11] = tested on: MDA-MB-231 breast
[12] = tested on: SK-OV-3 ovarian
[13] = tested on: T-47D breast
[14] = tested on: SK-MEL-5 melanoma
[15] = tested on: TK-10 renal
[16] = tested on: CAKI-1 renal
[17] = tested on: LOX IMVI melanoma
[18] = tested on: RXF 393 renal
[19] = tested on: OVCAR-4 ovarian
[20] = tested on: NCI-H23 lung
[21] = tested on: RPMI-8226 leukemia
[22] = tested on: UACC-62 melanoma
[23] = tested on: HL-60(TB) leukemia
[24] = tested on: SNB-75 CNS
[25] = tested on: NCI/ADR-RES ovarian
[26] = tested on: A498 renal
[27] = tested on: PC-3 prostate
[28] = tested on: MCF7 breast
[29] = tested on: CCRF-CEM leukemia
[30] = tested on: SF-295 CNS
[31] = tested on: SF-539 CNS
[32] = tested on: 786-0 renal
[33] = tested on: NCI-H522 lung
[34] = tested on: MALME-3M melanoma
[35] = tested on: HT29 colon
[36] = tested on: OVCAR-8 ovarian
[37] = tested on: A549 NSCLC
[38] = tested on: KM12 colon
[39] = tested on: HCC-2998 colon
[40] = tested on: UACC-257 melanoma
[41] = tested on: U251 CNS
[42] = tested on: HCT-116 colon
[43] = tested on: UO-31 renal
[44] = tested on: EKVX NSCLC
[45] = tested on: M14 melanoma
[46] = tested on: HCT-15 colon
[47] = tested on: DU-145 prostate
[48] = tested on: BT-549 breast
[49] = tested on: IGROV1 ovarian
[50] = tested on: HOP-92 NSCLC
[51] = tested on: OVCAR-3 ovarian
[52] = tested on: MDA-MB-435

N#CC1=C(N)OC2=C(COc3ccc(F)cc32)C1c1ccc(Cl)cc1 (centres undefined)
GI50 [1]: 42.8 µM | TGI [1]: > 100 µM | GI50 [2]: 38.3 µM | TGI [2]: > 100 µM | GI50 [3]: 41.6 µM | TGI [3]: > 100 µM | GI50 [4]: 27.3 µM | TGI [4]: 82 µM | GI50 [5]: 35.1 µM | TGI [5]: > 100 µM | GI50 [6]: 44.7 µM | TGI [6]: > 100 µM | GI50 [7]: 22.9 µM | TGI [7]: 93.5 µM | GI50 [8]: 27.8 µM | TGI [8]: > 100 µM | GI50 [9]: 28.3 µM | TGI [9]: > 100 µM | GI50 [10]: 53.3 µM | TGI [10]: > 100 µM | GI50 [11]: 26.1 µM | TGI [11]: 88 µM | GI50 [12]: 53.1 µM | TGI [12]: > 100 µM | GI50 [13]: > 100 µM | TGI [13]: > 100 µM | GI50 [14]: 20.4 µM | TGI [14]: 58.7 µM | GI50 [15]: 43.1 µM | TGI [15]: > 100 µM | GI50 [16]: 30.1 µM | TGI [16]: > 100 µM | GI50 [17]: 35.1 µM | TGI [17]: > 100 µM | GI50 [18]: > 100 µM | TGI [18]: > 100 µM | GI50 [19]: 78.3 µM | TGI [19]: > 100 µM | GI50 [20]: 29.6 µM | TGI [20]: 93.6 µM | GI50 [21]: 26.6 µM | TGI [21]: > 100 µM | GI50 [22]: 18.5 µM | TGI [22]: 42.6 µM | GI50 [23]: 33.5 µM | TGI [23]: 86 µM | GI50 [24]: > 100 µM | TGI [24]: > 100 µM | GI50 [25]: 19.1 µM | TGI [25]: 48.8 µM | GI50 [26]: 22.2 µM | TGI [26]: 67.7 µM | GI50 [27]: 32.3 µM | TGI [27]: > 100 µM | GI50 [28]: 30.3 µM | TGI [28]: > 100 µM | GI50 [29]: 55.5 µM | TGI [29]: > 100 µM | GI50 [30]: 19.6 µM | TGI [30]: 78.3 µM | GI50 [31]: 29.5 µM | TGI [31]: 81.6 µM | GI50 [32]: 32.3 µM | TGI [32]: > 100 µM | GI50 [33]: 38.2 µM | TGI [33]: 93.6 µM | GI50 [34]: 47.9 µM | TGI [34]: 94.9 µM | GI50 [35]: 50.4 µM | TGI [35]: > 100 µM | GI50 [36]: 51.1 µM | TGI [36]: > 100 µM | GI50 [37]: 93.4 µM | TGI [37]: > 100 µM | GI50 [38]: 33.4 µM | TGI [38]: > 100 µM | GI50 [39]: 25.6 µM | TGI [39]: 60.2 µM | GI50 [40]: 41.6 µM | TGI [40]: > 100 µM | GI50 [41]: 32.6 µM | TGI [41]: > 100 µM | GI50 [42]: 36.3 µM | TGI [42]: > 100 µM | GI50 [43]: 48.5 µM | TGI [43]: > 100 µM | GI50 [44]: 37.3 µM | TGI [44]: > 100 µM | GI50 [45]: 44.6 µM | TGI [45]: > 100 µM | GI50 [46]: 34.4 µM | TGI [46]: > 100 µM | GI50 [47]: 44.1 µM | TGI [47]: > 100 µM | GI50 [48]: 27.3 µM | TGI [48]: 73.5 µM | GI50 [49]: 70.3 µM | TGI [49]: > 100 µM | GI50 [50]: 30.5 µM | TGI [50]: > 100 µM | GI50 [51]: 17.2 µM | TGI [51]: 42.3 µM | GI50 [52]: 28.5 µM | TGI [52]: > 100 µM
